These results are taken from ChEMBL document CHEMBL1140398, “New dual inhibitors of EGFR and HER2 protein tyrosine kinases” (Bioorg Med Chem Lett, 2005).

One may read the IC50 as the point on the concentration scale where inhibition reaches its midpoint. Low readings indicate greater potency, high ones weaker potency.

Experiment [1] has as its target Epidermal growth factor receptor (Homo sapiens, UniProt P00533). The experiment in a line: In vitro inhibitory concentration against EGFR cytoplasmic sequence expressed in Sf9 cells.
Experiment [2] concerns the target Receptor tyrosine-protein kinase erbB-2 (Homo sapiens, UniProt P04626). Put plainly: In vitro inhibitory concentration against HER2 cytoplasmic sequence expressed in Sf9 cells.
For experiment [3], the target named is Focal adhesion kinase 1 (Homo sapiens, UniProt Q05397). Put plainly: Inhibitory concentration against FAK cytoplasmic sequence; Reported as mean (variability <15%).
Experiment [4] deals with Hepatocyte growth factor receptor (Homo sapiens, UniProt P08581). Put plainly: Inhibitory concentration against Met cytoplasmic sequence; Reported as mean (variability <15%).
Experiment [5] concerns the target MAP kinase-activated protein kinase 2 (Homo sapiens, UniProt P49137). The experiment in a line: Inhibitory concentration against MAPKAP kinase 2 cytoplasmic sequence; Reported as mean (variability <15%).
Experiment [6] concerns the target Mitogen-activated protein kinase 14 (Homo sapiens, UniProt Q16539). The experiment in a line: Inhibitory concentration against p38 cytoplasmic sequence; Reported as mean (variability <15%).
The target of experiment [7] is Insulin-like growth factor 1 receptor (Homo sapiens, UniProt P08069). The experiment in a line: Inhibitory concentration against IGF-1R cytoplasmic sequence; Reported as mean (variability <15%).
Insulin-like growth factor 1 receptor, sequence (P08069 31-736 limits assumed): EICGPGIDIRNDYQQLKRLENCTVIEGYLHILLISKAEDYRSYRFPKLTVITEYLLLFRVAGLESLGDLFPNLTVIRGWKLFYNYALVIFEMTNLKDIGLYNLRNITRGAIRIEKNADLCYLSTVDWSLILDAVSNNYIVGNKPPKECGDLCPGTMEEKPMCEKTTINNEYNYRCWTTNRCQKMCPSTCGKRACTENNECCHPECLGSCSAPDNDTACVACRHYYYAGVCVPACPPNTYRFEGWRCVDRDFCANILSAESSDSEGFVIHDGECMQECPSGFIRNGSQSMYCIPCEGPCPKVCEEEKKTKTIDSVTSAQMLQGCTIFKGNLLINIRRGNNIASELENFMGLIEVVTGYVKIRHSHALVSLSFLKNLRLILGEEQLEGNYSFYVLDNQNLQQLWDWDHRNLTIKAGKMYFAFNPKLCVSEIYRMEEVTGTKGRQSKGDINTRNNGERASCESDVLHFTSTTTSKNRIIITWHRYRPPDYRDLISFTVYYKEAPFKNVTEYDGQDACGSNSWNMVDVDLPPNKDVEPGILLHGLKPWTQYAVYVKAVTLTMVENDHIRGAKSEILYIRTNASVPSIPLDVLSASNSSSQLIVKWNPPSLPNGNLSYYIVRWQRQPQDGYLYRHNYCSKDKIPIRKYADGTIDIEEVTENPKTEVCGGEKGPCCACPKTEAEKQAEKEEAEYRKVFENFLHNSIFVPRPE
Insulin-like growth factor 1 receptor, sequence (P08069 741-1367 limits assumed): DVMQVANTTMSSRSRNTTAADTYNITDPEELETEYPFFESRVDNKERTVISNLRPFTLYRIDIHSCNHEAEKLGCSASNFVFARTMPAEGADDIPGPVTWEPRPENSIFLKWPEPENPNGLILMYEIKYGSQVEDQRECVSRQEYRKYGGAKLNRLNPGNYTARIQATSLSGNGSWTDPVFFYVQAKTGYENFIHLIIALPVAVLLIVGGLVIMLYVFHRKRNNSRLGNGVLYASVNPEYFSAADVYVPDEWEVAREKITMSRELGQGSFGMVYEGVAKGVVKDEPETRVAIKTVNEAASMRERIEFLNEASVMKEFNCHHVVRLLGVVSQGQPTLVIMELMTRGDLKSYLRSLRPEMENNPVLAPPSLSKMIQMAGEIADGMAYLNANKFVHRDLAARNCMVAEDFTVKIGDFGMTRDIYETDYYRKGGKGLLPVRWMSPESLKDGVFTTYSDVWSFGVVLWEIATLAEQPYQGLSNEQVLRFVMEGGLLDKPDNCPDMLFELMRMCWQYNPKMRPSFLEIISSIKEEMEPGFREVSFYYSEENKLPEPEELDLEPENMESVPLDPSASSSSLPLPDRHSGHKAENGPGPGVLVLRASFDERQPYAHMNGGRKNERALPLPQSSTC

Receptor tyrosine-protein kinase erbB-2, sequence (P04626 whole entry): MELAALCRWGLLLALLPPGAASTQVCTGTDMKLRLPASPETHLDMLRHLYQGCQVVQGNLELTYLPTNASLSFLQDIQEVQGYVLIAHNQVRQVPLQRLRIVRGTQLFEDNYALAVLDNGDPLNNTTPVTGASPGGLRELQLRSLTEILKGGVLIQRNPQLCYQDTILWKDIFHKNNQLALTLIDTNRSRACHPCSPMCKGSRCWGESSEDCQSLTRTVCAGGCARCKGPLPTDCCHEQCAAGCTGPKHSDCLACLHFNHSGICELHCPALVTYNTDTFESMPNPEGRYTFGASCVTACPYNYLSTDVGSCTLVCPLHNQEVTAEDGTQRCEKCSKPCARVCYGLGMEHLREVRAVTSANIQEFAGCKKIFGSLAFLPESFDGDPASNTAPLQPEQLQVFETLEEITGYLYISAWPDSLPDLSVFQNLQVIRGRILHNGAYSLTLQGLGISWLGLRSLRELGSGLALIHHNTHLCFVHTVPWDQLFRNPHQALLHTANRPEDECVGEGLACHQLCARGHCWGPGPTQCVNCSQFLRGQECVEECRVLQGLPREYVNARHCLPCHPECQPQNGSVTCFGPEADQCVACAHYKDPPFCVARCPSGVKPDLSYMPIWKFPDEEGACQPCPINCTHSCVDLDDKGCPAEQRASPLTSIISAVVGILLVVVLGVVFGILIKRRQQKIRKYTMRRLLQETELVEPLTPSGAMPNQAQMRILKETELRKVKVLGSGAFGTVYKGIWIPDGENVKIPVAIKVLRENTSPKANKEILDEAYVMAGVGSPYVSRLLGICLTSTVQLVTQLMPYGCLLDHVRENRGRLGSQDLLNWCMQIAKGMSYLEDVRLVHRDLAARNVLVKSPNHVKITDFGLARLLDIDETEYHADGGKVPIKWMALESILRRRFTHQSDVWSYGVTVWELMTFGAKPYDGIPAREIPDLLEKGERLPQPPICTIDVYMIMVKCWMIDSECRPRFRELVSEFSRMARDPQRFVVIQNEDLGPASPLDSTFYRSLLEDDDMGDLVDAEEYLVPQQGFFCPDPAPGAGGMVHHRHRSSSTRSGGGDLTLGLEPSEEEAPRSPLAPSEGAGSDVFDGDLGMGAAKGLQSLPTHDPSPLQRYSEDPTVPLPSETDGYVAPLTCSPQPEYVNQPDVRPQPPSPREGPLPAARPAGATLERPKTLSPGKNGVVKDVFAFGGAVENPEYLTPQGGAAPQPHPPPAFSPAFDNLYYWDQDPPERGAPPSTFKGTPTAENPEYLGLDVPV
Epidermal growth factor receptor, sequence (P00533 whole entry): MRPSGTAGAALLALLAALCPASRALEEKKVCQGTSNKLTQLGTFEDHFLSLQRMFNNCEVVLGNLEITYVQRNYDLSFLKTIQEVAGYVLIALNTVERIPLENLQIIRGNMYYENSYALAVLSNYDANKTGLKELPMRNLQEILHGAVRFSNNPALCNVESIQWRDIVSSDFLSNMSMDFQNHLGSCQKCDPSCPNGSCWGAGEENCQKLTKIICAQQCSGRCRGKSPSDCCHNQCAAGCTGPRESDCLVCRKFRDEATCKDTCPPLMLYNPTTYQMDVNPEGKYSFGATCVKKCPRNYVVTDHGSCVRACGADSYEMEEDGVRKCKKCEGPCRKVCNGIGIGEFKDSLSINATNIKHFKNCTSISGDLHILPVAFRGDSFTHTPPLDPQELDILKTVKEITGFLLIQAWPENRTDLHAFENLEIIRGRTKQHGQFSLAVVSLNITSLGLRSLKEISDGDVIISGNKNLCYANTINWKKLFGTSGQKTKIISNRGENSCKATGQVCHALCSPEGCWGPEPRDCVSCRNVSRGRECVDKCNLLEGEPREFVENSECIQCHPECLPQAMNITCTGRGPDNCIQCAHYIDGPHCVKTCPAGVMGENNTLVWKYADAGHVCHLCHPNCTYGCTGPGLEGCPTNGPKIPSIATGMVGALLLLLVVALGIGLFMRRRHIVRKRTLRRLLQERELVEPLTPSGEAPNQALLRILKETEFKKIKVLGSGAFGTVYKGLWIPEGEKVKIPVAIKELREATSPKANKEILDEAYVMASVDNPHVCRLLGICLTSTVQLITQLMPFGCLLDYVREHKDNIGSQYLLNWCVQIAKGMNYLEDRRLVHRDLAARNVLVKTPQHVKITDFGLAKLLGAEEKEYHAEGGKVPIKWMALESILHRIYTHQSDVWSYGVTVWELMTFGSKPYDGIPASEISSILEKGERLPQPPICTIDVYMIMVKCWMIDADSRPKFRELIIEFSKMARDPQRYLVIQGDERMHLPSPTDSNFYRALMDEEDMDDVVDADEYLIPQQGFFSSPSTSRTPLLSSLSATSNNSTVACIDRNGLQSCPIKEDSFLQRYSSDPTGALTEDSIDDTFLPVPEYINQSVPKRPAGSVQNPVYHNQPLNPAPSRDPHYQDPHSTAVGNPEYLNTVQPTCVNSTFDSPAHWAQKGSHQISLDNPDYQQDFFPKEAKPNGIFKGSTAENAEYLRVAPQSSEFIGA
Mitogen-activated protein kinase 14, sequence (Q16539 whole entry): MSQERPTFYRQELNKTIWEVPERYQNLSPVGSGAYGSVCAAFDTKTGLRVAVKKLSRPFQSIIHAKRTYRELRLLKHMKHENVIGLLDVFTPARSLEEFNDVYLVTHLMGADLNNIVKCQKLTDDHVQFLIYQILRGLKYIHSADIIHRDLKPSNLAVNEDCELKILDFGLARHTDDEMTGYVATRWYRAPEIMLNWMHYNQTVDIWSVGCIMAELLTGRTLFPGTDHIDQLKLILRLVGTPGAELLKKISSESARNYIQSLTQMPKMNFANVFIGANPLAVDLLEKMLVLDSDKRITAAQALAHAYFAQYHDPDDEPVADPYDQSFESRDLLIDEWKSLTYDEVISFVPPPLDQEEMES
MAP kinase-activated protein kinase 2, sequence (P49137 whole entry): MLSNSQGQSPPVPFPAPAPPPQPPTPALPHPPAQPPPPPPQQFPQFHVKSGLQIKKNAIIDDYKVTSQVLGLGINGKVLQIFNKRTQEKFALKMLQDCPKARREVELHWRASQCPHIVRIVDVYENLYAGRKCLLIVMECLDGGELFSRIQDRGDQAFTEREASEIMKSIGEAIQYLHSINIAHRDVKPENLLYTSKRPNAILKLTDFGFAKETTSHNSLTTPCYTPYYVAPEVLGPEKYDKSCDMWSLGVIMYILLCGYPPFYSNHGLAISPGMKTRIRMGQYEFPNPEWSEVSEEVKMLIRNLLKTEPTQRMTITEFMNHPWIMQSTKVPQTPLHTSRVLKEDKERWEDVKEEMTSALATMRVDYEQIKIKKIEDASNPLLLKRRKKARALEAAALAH

On to `CCc1c(C(=O)OCCCn2ccnc2)cn2ncnc(Nc3ccc4c(cnn4Cc4ccccc4)c3)c12`, for which the figures for the 50% inhibitory concentration (IC50) in experiment [1] and in experiment [2] were 170 nM and 240 nM, respectively.

As for `CCc1c(C(=O)NCCCn2ccnc2)cn2ncnc(Nc3ccc4c(cnn4Cc4ccccc4)c3)c12`, the IC50 worked out at 40 nM in experiment [1] and 30 nM in experiment [2].

Regarding `CCc1c(CC(N)=O)cn2ncnc(Nc3ccc4c(cnn4Cc4ccccc4)c3)c12`, the results for the IC50 in experiment [1] and in experiment [2] were 1100 nM and 2400 nM, respectively.

In the case of `CCOC(=O)c1cn2ncnc(Nc3ccc(Oc4ccccc4)cc3)c2c1CC`, the IC50 was 610 nM in experiment [1] and 820 nM in experiment [2].

Regarding `CCc1c(C(N)=O)cn2ncnc(Nc3ccc4c(cnn4Cc4ccccc4)c3)c12`, the IC50 in experiment [1] turned out to be 120 nM; in experiment [2], 110 nM.

`CCOC(=O)c1cn2ncnc(Nc3ccc(F)c(Cl)c3)c2c1CC`: the IC50 in experiment [1] turned out to be 90 nM; in experiment [2] it was 2800 nM.

`CCc1c(C(=O)O)cn2ncnc(Nc3ccc4c(cnn4Cc4ccccc4)c3)c12`: the IC50 in experiment [1] was found to be 20 nM; in experiment [2], 40 nM.

On to `CCOCc1cn2ncnc(Nc3ccc4c(cnn4Cc4ccccc4)c3)c2c1CC`, for which the IC50 in experiment [1] stood at 950 nM; in experiment [2] it was 1400 nM.

Regarding `CCOC(=O)c1cn2ncnc(Nc3ccc4c(cnn4Cc4ccccc4)c3)c2c1CC`, the IC50 in experiment [1] was determined as 120 nM; in experiment [2], 180 nM.

As to `CCOC(=O)c1cn2ncnc(Nc3ccc4c(cnn4Cc4ccccc4)c3)c2c1Cc1ccccc1`, the IC50 in experiment [1] and in experiment [2] was above 25000 nM each time.

On to `CCc1c(C(=O)NC)cn2ncnc(Nc3ccc4c(cnn4Cc4ccccc4)c3)c12`, for which the half-inhibitory concentration (IC50) turned out to be 70 nM in experiment [1] and 130 nM in experiment [2].

With `CCOC(=O)c1cn2ncnc(Nc3ccc4c(cnn4Cc4ccccc4)c3)c2c1C(C)C`, the figures for the IC50 in experiment [1] and in experiment [2] were 200 nM and 210 nM, respectively.

As to `CCNCc1cn2ncnc(Nc3ccc4c(cnn4Cc4ccccc4)c3)c2c1CC`, the figures for the concentration for half-maximal inhibition (IC50) in experiment [1] and in experiment [2] were 7400 nM and 9700 nM, respectively.

As for `CCOC(=O)c1cn2ncnc(Nc3cccc(Br)c3)c2c1CC`, the values for the IC50 in experiment [1] and in experiment [2] were 60 nM and 3000 nM, respectively.

In the case of `CCOC(=O)c1cn2ncnc(NCc3ccccc3)c2c1CC`, the 50% inhibitory concentration (IC50) in experiment [1] was determined as 200 nM; in experiment [2], 7200 nM.

Compound `CCOC(=O)c1cn2ncnc(Nc3ccc4[nH]ncc4c3)c2c1CC` had a 50% inhibitory concentration (IC50) in experiment [2] of 3300 nM.

With `CCc1c(C(=O)N(C)C)cn2ncnc(Nc3ccc4c(cnn4Cc4ccccc4)c3)c12`, the 50% inhibitory concentration (IC50) turned out to be 200 nM in experiment [1] and 500 nM in experiment [2].

In the case of `CCc1c(NC(=O)OCc2ccccc2)cn2ncnc(Nc3ccc4c(cnn4Cc4ccccc4)c3)c12`, the figures for the IC50 in experiment [1] and in experiment [2] were 210 nM and 170 nM, respectively.

For `CCc1c(CC(=O)O)cn2ncnc(Nc3ccc4c(cnn4Cc4ccccc4)c3)c12`, the IC50 in experiment [1] was 1600 nM; in experiment [2], 680 nM.

Regarding `CCc1c(CO)cn2ncnc(Nc3ccc4c(cnn4Cc4ccccc4)c3)c12`, the values for the half-inhibitory concentration (IC50) in experiment [1] and in experiment [2] were 490 nM and 730 nM, respectively.

In the case of `CCc1c(NC(=O)OCCn2ccnc2)cn2ncnc(Nc3ccc4c(cnn4Cc4ccccc4)c3)c12`, the half-maximal inhibitory concentration (IC50) was above 25000 nM in experiment [3]; 40 nM in experiment [1]; above 10000 nM in experiment [4]; 40 nM in experiment [2]; above 25000 nM in experiment [5]; above 25000 nM in experiment [6]. In experiment [7], this compound showed a concentration for half-maximal inhibition (IC50) above 25000 nM.

In the case of `CCOC(=O)c1cc2c(Nc3ccc4c(cnn4Cc4ccccc4)c3)ncnn2c1`, the 50% inhibitory concentration (IC50) turned out to be 120 nM in experiment [1] and 390 nM in experiment [2].

Turning to `CCCc1c(C(=O)OCC)cn2ncnc(Nc3ccc4c(cnn4Cc4ccccc4)c3)c12`, the IC50 in experiment [1] stood at 950 nM; in experiment [2], 1200 nM.
